From article PMC5011342, “A high throughput drug screening assay to identify compounds that promote oligodendrocyte differentiation using acutely dissociated and purified oligodendrocyte precursor cells” (BMC Research Notes, 2016)
Entries after “also recorded” stand apart in the source; their conditions may differ. Read-outs that look alike come from different tables or passages of the source.

Columns and labels:
[1] = system: acutely dissociated and purified rat OPCs; assay: Acute OL differentiation assay (MBP expression/cell, immunofluorescent image quantification); assay type: cell-based; conditions: for activation at 2 µM / activation at 10 µM / activation at 0.08 µM / activation at 0.4 µM / EC50: Rattus norvegicus; for activation at 0.08 µM: test compound at 0.08 uM, read-out: 0.08 uM (% Quet); for hit in OL differentiation assay, MRF-TMC: ● = confirmed hit in this paper's assay; for EC50: average EC50 for induction of OL differentiation from independent biological replicates, eight concentrations
Experimental: In order to identify compounds with the potential to promote OL differentiation in vivo and thereby enhance remyelination, we first wanted to establish an in vitro assay system that would closely mimic conditions in vivo. To do this, we started by using OPCs acutely isolated from postnatal day 6–7 (P6–7) rat brains by O4 immunopanning. […] OPCs were plated directly onto a biological substrate (PDL/laminin) in 96-well view plates at moderate density to allow for sufficient room to expand processes during differentiation. We plated cells in serum-free medium lacking OPC mitogens (no PDGF or FGF) to allow a basal level of OL differentiation to commence, and as a positive control added thyroid hormone (T3, 40 ng/ml) to accelerate differentiation (Fig. 1, flow scheme).
Fig. 1 Flow scheme of the acute OL differentiation assay. a Purified oligodendrocyte precursor cells (OPCs) were cultured from P7 rat cortex and plated into PDL/laminin pre-coated 96-well plates. b One hour later test compounds were added. c OPC cultures with compound were maintained in culture for an additional 4 days. d On the 5th day with compound, cells were fixed and immunostained with anti-MBP antibodies and DAPI. e Images were acquired with automated fluorescence microscopy and scored phenotypically for OL differentiation (see “Methods” section)
To quantify the extent of OL differentiation occurring in treatment conditions, we measured the overall amount of MBP expression/cell (see “Methods” section). Figure 2a depicts the mask created over MBP staining under which the MBP expression was quantified. […]
All animal work was carried out in strict accordance with the recommendations in the Guide for the Care and Use of Laboratory Animals of the National Institutes of Health. The protocol was approved by the Institutional Use and Care and Use Committee at the Molecular Medicine Research Institute (Sunnyvale, CA). Animals used for OPC isolation in these studies were euthanized by decapitation. OPCs from brains of P6-P7 Sprague–Dawley rat pups (Charles River, Wilmington, MA, USA) were enriched by immunopanning as previously described (Dugas et al. 2006). Briefly, single cell suspensions were obtained from papain-digested neonatal brains and depleted of mature glial cells by successive panning with RAN-2- and GalC-coated plates, followed by enrichment for OPCs using O4-coated plates. OPCs were plated in differentiation media (DMEM, 100 U/ml Penicillin/100 µg/ml streptomycin, 2 mM L-glutamine, 1 mM Na pyruvate, 5 µg/ml insulin, 5 µg/ml N-acetyl-L-cysteine, 1× trace elements B,10 ng/ml d-Biotin, 100 µg/ml BSA, 100 µg/ml apo-transferrin, 16 µg/ml putrescine, 60 ng/ml progesterone, 40 ng/ml sodium selenite 5 ng/ml forskolin, 10 ng/ml CNTF, 1 ng/ml NT-3).
Acutely enriched OPCs were plated in differentiation media at 5000 cells/well into PDL/laminin coated 96-well view plates and centrifuged at 200×g to facilitate cell attachment, survival, and even distribution of OPCs. OPCs were pre-incubated for 1–2 h at 37 °C in 10 % CO2, followed by the addition of test compounds in quadruplicate. Controls were added in eight replicate wells, negative control = 0.1 % DMSO; positive control = 40 ng/ml T3. The day of OPC plating was considered DIV0. On DIV4, cells were fixed, immunostained for myelin basic protein (MBP) expression, imaged and quantified as described below.

[2] = system: expanded OPCs; assay: cells; conditions: for viability at 0.1 µM / viability at 1 µM / viability at 10 µM: Rattus norvegicus, 72 h
Experimental: Having established a consistent assay for measuring OL differentiation in vitro, the next step was to utilize this assay to assess the ability of a wide array of compounds to promote OL differentiation. Prior to library screening, we first established the maximum non-toxic dose of each compound in the library. […] Therefore, we added each compound in the NIH clinical collection (NCC) library to OPCs at 10, 1, and 0.1 µM concentrations. Three days later, we assessed viability of the treated cells by measuring AlamarBlue fluorescence, a measure of cell viability (see “Methods” section). […] Appropriately, we established three sets of screening concentrations for library compounds: non-toxic compounds were tested at 10 and 2 µM, slightly toxic compounds (only toxic at 10 µM) were tested at 2 and 0.4 µM, and very toxic compounds were tested at 0.4 and 0.08 µM.
OPCs were expanded in vitro by seeding into PDL-coated tissue culture flasks at 1000–2000 cells/cm^2 in differentiation media supplemented with 10 ng/ml PDGF-AA. Proliferating OPCs were fed every 2–3 days and supplemented with 2–3× concentration of PDGF as needed to prevent OPC differentiation. After 6–7 days of proliferation, OPCs were harvested by trypsinization, plated into PDL-coated 96-well Falcon plates and centrifuged at 200×g to facilitate cell attachment, survival, and even distribution of cells. Expanded OPCs were seeded in differentiation media at 10,000 cells/well and incubated for 2 h at 37 °C, 10 % CO2 prior to addition of compounds. The NCC library was diluted and added to cells at 10, 1, and 0.1 µM; each concentration was tested in quadruplicate. As a positive control for the induction of toxicity, 5 ng/ml tunicamycin was added to 8 wells in each plate. Three days later, a 1:10 dilution of alamarBlue® (AB) was added to each well and cells were incubated 4 h at 37 °C, 10 % CO2. AB fluorescence was measured using a PerkinElmer Victor II fluorescence microplate reader (PerkinElmer, Waltham, MA) with 560 nm excitation/590 nm emission filters. For library screening, the highest concentration of each compound was adjusted to a minimally toxic concentration based on this toxicity data. Compounds were additionally tested at a second concentration that was 1/5th of the top concentration. The final concentration of DMSO in each well was 0.1 %.

[3] = 2 uM test compound, relative to quetiapine, sheet "All OLga data"
[4] = 10 uM test compound, relative to quetiapine, sheet "All OLga data"
[5] = alamarBlue viability of expanded OPCs, compound at 0.1 µM, sheet All Tox data
[6] = alamarBlue viability of expanded OPCs, compound at 1 µM, sheet All Tox data
[7] = alamarBlue viability of expanded OPCs, compound at 10 µM, sheet All Tox data
[8] = 2 uM test compound, relative to quetiapine, sheet "All OLga data", read-out: OL differentiation, 2 uM (% Quet)
[9] = 10 uM test compound, relative to quetiapine, sheet "All OLga data", read-out: OL differentiation, 10 uM (% Quet)
[10] = read-out: 0.1 µM (% DMSO), alamarBlue viability of expanded OPCs, compound at 0.1 µM, sheet All Tox data
[11] = read-out: 1 µM (% DMSO), alamarBlue viability of expanded OPCs, compound at 1 µM, sheet All Tox data
[12] = read-out: 10 µM (% DMSO), alamarBlue viability of expanded OPCs, compound at 10 µM, sheet All Tox data
[13] = NCC library screen, sheet "All OLga data", relative to quetiapine
[14] = test compound at 0.4 uM, NCC library screen, sheet "All OLga data", relative to quetiapine, read-out: 0.4 uM (% Quet)
[15] = read-out: 0.1 µM (% DMSO), alamarBlue viability, NCC library compound at 0.1 µM, sheet "All Tox data"
[16] = read-out: 1 µM (% DMSO), alamarBlue viability, NCC library compound at 1 µM, sheet "All Tox data"
[17] = read-out: 10 µM (% DMSO), alamarBlue viability, NCC library compound at 10 µM, sheet "All Tox data"
[18] = test compound at 2 uM, NCC library screen, sheet "All OLga data", relative to quetiapine, read-out: 2 uM (% Quet)
[19] = test compound at 10 uM, NCC library screen, sheet "All OLga data", relative to quetiapine, read-out: 10 uM (% Quet)
[20] = alamarBlue viability of expanded OPCs, compound at 0.1 µM, relative to DMSO control
[21] = alamarBlue viability of expanded OPCs, compound at 1 µM, relative to DMSO control
[22] = alamarBlue viability of expanded OPCs, compound at 10 µM, relative to DMSO control

Cl.FC(F)(F)c1cccc(N2CCNCC2)c1
OL differentiation, 2 uM (% Quet) [1, 3]: 23.8 % Quet | OL differentiation, 10 uM (% Quet) [1, 4]: 20.8 % Quet | 0.1 µM (% DMSO) [2, 5]: 91.5 % DMSO | 1 µM (% DMSO) [2, 6]: 101.9 % DMSO | 10 µM (% DMSO) [2, 7]: 76.4 % DMSO

CC=CC(=O)N(CC)c1ccccc1C (mixture of isomers) [Crotamiton]
activation at 2 µM [1, 8]: 1.7% | activation at 10 µM [1, 9]: 1.9% | viability at 0.1 µM [2, 10]: 92.3% | viability at 1 µM [2, 11]: 106% | viability at 10 µM [2, 12]: 97.8%

Oc1cc2c(cc1O)[C@H]1c3ccccc3CN[C@@H]1CC2 (racemic) [Dihydrexidine]
activation at 0.08 µM [1, 13]: -13.3% | activation at 0.4 µM [1, 14]: -27.6% | viability at 0.1 µM [2, 15]: 81.4% | viability at 1 µM [2, 16]: 37.9% | viability at 10 µM [2, 17]: 9.8%

c1ccc(Cn2ccnc2)cc1 [1-Benzylimidazole]
activation at 2 µM [1, 18]: 0.1% | activation at 10 µM [1, 19]: 10.7% | viability at 0.1 µM [2, 15]: 85.4% | viability at 1 µM [2, 16]: 91.8% | viability at 10 µM [2, 17]: 94.3%

O=c1[nH]cnc2c1ncn2[C@H]1CC[C@@H](CO)O1 [2',3'-Dideoxyinosine]
activation at 2 µM [1, 8]: 10% | activation at 10 µM [1, 9]: -0.07% | viability at 0.1 µM [2, 10]: 88.6% | viability at 1 µM [2, 11]: 88.2% | viability at 10 µM [2, 12]: 86.2%

NCCc1ccccn1 [2-(2-aminoethyl)pyridine]
activation at 2 µM [1, 18]: 20.5% | activation at 10 µM [1, 19]: 16.9% | viability at 0.1 µM [2, 15]: 97.5% | viability at 1 µM [2, 16]: 81.9% | viability at 10 µM [2, 17]: 73.2%

Nc1nc(Cl)nc2c1ncn2[C@@H]1O[C@H](CO)[C@@H](O)[C@H]1O [2-Chloroadenosine]
OL differentiation, 2 uM (% Quet) [1, 3]: 8.0 % Quet | OL differentiation, 10 uM (% Quet) [1, 4]: 32.5 % Quet | 0.1 µM (% DMSO) ([2]; alamarBlue viability, NCC library compound at 0.1 µM, sheet "All Tox data"): 113.1 % DMSO | 1 µM (% DMSO) ([2]; alamarBlue viability, NCC library compound at 1 µM, sheet "All Tox data"): 99.2 % DMSO | 10 µM (% DMSO) ([2]; alamarBlue viability, NCC library compound at 10 µM, sheet "All Tox data"): 99.5 % DMSO

O=C1NC(C(=O)O)CS1 (centres unmarked) [2-oxothiazolidine-4-carboxylic acid]
OL differentiation, 2 uM (% Quet) [1, 3]: -5.5 % Quet | OL differentiation, 10 uM (% Quet) [1, 4]: 20.5 % Quet | 0.1 µM (% DMSO) [2, 5]: 78.9 % DMSO | 1 µM (% DMSO) [2, 6]: 89.6 % DMSO | 10 µM (% DMSO) [2, 7]: 83.7 % DMSO

O=C(O)CCCc1ccccc1 [4-Phenylbutyric acid]
activation at 2 µM [1, 18]: 9% | activation at 10 µM [1, 19]: -4.1% | 0.1 µM (% DMSO) [2, 20]: 90.4 % DMSO | 1 µM (% DMSO) [2, 21]: 91.7 % DMSO | 10 µM (% DMSO) [2, 22]: 104.6 % DMSO

O=c1[nH]cc(F)c(=O)[nH]1 [5-Fluorouracil]
activation at 0.08 µM [1, 13]: -10.8% | activation at 0.4 µM [1, 14]: -21.3% | 0.1 µM (% DMSO) [2, 20]: 80.9 % DMSO | 1 µM (% DMSO) [2, 21]: 26.6 % DMSO | 10 µM (% DMSO) [2, 22]: 12.2 % DMSO

COc1ccc2[nH]cc(CCN)c2c1 [5-Methoxytryptamine]
activation at 2 µM [1, 18]: 2.6% | activation at 10 µM [1, 19]: 4.2% | viability at 0.1 µM [2, 15]: 82.9% | viability at 1 µM [2, 16]: 83.6% | viability at 10 µM [2, 17]: 78.8%

COc1cc2c(cc1OC)C(=O)C(CC1CCN(Cc3ccccc3)CC1)C2 (centres unmarked) [Donepezil, reference compound]
activation at 2 µM [1, 8]: 94.8% | activation at 10 µM [1, 9]: 75.6% | hit in OL differentiation assay, MRF-TMC [1]: ●

CN(C)CCC[C@@]1(c2ccc(F)cc2)OCc2cc(C#N)ccc21 [Escitalopram, reference compound]
EC50 [1]: 1.3 µM | hit in OL differentiation assay, MRF-TMC [1]: ●

COc1ccc(CC(C)NCC(O)c2ccc(O)c(NC=O)c2)cc1 (centres unmarked) [Formoterol]
activation at 2 µM ([1]; read-out: 2 uM (% Quet)): 4.6% | activation at 10 µM ([1]; read-out: 10 uM (% Quet)): 12.1%

CC1CCN(CCCC(=O)c2ccc(F)cc2)CC1 [Metylperon, reference compound]
EC50 [1]: 7.3 µM | hit in OL differentiation assay, MRF-TMC [1]: ●

COc1c(N2C[C@@H]3CCCN[C@@H]3C2)c(F)cc2c(=O)c(C(=O)O)cn(C3CC3)c12 [Moxifloxacin]
activation at 2 µM [1, 8]: 20.2% | activation at 10 µM [1, 9]: 16.3%

COC(=O)C1=C(C)NC(C)=C(C(=O)OC)C1c1ccccc1[N+](=O)[O-] [Nifedipine]
activation at 0.4 µM ([1]; 0.4 uM test compound, relative to quetiapine, sheet "All OLga data", read-out: OL differentiation, 0.4 uM (% Quet)): 19.7% | activation at 2 µM [1, 8]: -8.9%

Nc1nc2ccc(OC(F)(F)F)cc2s1 [Riluzole]
activation at 2 µM [1, 8]: -11.1% | activation at 10 µM [1, 9]: 32.6%

N[C@@H](Cc1cc(I)c(Oc2ccc(O)c(I)c2)c(I)c1)C(=O)O [T3, triiodothyronine, reference compound]
promotion of OL differentiation (in words) ([1]; MBP expression versus 0.1 % DMSO negative control): able to promote OL differentiation at one or both concentrations tested; also recorded: consistently and significantly promote OL differentiation
